Patent US8450272B2, “Combinations of somatostatin-analogs with different selectivity for human somatostatin receptor subtypes” (priority 2006, dated 2013)
Numbered stars: 1 amine (or outer) side, 2 acyl side, 3 side chain; on linkers, the order of the positions; unused ones are H or OH. Square brackets hold non-standard residues; d marks the D form. Side chains are listed from the residue outwards. Peptide text beside a SMILES is read from it. * marks the point of attachment. ξ: configuration not given here. Ethylenediamine = C(CN[*:2])N[*:1]; Hyp = O=C(O)[C@@H]1C[C@@H](O)CN1; ξPhg = NC(C(=O)O)c1ccccc1; CO = O=C([*:1])[*:2]; Bn = c1ccc(C*)cc1

Tests used:
[1] = Long-term s.c. infusion by osmotic minipumps, plasma glucose concentration; type: in vivo, adult male Lewis rats; conditions: 3 and 10 μg/kg/h alone, rats
Protocol: Effect of long term application of octreotide and pasireotide alone and in combination on plasma glucose concentration in rats. Compounds were continuously infused by osmotic minipumps at 3 and 10 μg/kg/h for the single compounds and at 1.5, 5 and 10 μg/kg/h for the combinations. Plasma glucose levels were determined one day before and 1, 7 and 14 days after minipumps implantation.
In the long-term experiments octreotide and pasireotide and their combination were s.c. infused in rats using osmotic minipumps (Alzet model: 2002). Blood samples were taken by sublingual bleeding on the day before minipump implantation and after 1, 7 and 14 days.

[2] = Short term experiment: acute s.c. injection, blood glucose AUC; type: in vivo, adult male Lewis rats; conditions: 10 μg/kg s.c., rats, within 1 hour after injection
Protocol: Effect of an acute s.c. injection of octreotide and pasireotide in rats (1 and 10 μg/kg) and different combinations thereof on the accumulated glucose levels between 0 and 1 hour after the injection (n=6 animals per group).
In the short term experiment octreotide and pasireotide and their combination were s.c. injected in rats in 1 ml saline. Blood samples were taken by sublingual bleeding the rats 15 min, 30 min, 1 h, 3 h, 6 h and 8 h after the injection and blood glucose was determined using ACCU-Chek Compact (Roche), which was newly calibrated before each measurement. In order to determine the overall effect of the treatment on glucose the area under the curve (AUC) was determined using GraphPad Prizm. 4.0.

[3] = Previous experiments: glucose increase after pasireotide injection; type: in vivo; conditions: rats
Protocol: Based on previous experiments in rats it was known that acute injection of pasireotide causes an increase in glucose, which was rapid in onset (within 30 min after injection), reached its peak between 1 and 3 h and returned to baseline values after 6-8 h. […] Therefore only moderate increases in glucose have been observed after repeated or long-term treatment with pasireotide mainly on the first day(s) of treatment. […] In order to investigate the efficacy of both compounds and their combination on a relevant parameter in rats plasma GH and IGF-1 levels as well as body weight were determined in rats within 14 days of continuous infusion with the compounds. […] Due to the known pulsatile release pattern of GH and the low sensitivity of the available GH RIA, levels of IGF-1 and body weight (BW) are more reliable parameters to determine efficacy of a compound on the GH/IGF-1 system. GH and IGF-1 are both growth factors which are responsible for growth of animals and humans and lack of these factors result in growth retardation in animals which are still growing (like in rats). […] Unlike the rapid changes in glucose levels, changes in IGF-1 levels are only observed after 1-2 days of treatment with somatostatin analogues.

[4] = in vivo; cited from earlier work

Compound | plasma glucose ([1]; continuous infusion for 14 days) | change of AUC glucose levels vs. control [2] | onset of increase in glucose after injection ([3]; acute injection) | return of glucose to baseline values ([3]; acute injection) | glucose response on repeated or long term injections ([3]; repeated or long term injections) | t1/2 [4] | plasma level of glucose ([1]; continuous infusion, day 1 and 7 of treatment)
C[C@@H](O)[C@@H]1NC(=O)[C@H](CCCCN)NC(=O)[C@@H](Cc2c[nH]c3ccccc23)NC(=O)[C@H](Cc2ccccc2)NC(=O)[C@@H](NC(=O)[C@H](N)Cc2ccccc2)CSSC[C@@H](C(=O)N[C@H](CO)[C@@H](C)O)NC1=O [octreotide] | no effect or caused a small but significant reduction | no effect |  |  |  |  | 
NCCCC[C@@H]1NC(=O)[C@@H](Cc2c[nH]c3ccccc23)NC(=O)C(c2ccccc2)NC(=O)[C@@H]2C[C@@H](OC(=O)NCCN)CN2C(=O)[C@H](Cc2ccccc2)NC(=O)[C@H](Cc2ccc(OCc3ccccc3)cc2)NC1=O (stereo partly drawn) [pasireotide, cyclo[{4-(NH2—C2H4—NH—CO—O—)Pro}-Phg-DTrp-Lys-Tyr(4-Bzl)-Phe]] (cyclo(F[Hyp]([CO-Ethylenediamine])[ξPhg][dW]KY(Bn))) |  | 56% | ≤ 30 min | 6 to 8 h | strong tachyphylaxis | 11 h | slightly, but significantly increased
